Measurements as given in patent publication US7910579B2, “Benzoxazole derivatives” (Tohoku University, priority 2006, dated 2011).
Read-outs that look alike come from different tables or passages of the source.

How the values were obtained:
Amyloid β protein 1-40 = biological target: T1, Amyloid β protein 1-40 (Homo sapiens, UniProt P05067); experiment: Fluorescence Congo Red Method; assay type: binding; details: 1 h, compound 10 μM, amyloid β protein 5 μM
T1 construct: Amyloid β protein 1-40 (bought from Peptide Laboratory); purchased Peptide Laboratory
Procedure: Next described is a screening method for the compounds of the invention. Some of the compounds of the invention could not be screened according to a Thioflavin T method, since their fluorescence wavelength overlaps with that of Thioflavin T. For such compounds, the following novel screening method was introduced. (1) Amyloid β protein 1-40 (bought from Peptide Laboratory) was dissolved in a phosphate buffer (pH 7.4) and left at 37° C. for 4 days. (2) 50 μl of Congo red dissolved in the buffer was applied to a 96-well microplate (final concentration, 0.1, 0.3, 1 μM). (3) 100 μl of amyloid β protein was added to it (final concentration 5 μM), and left as such for 30 minutes. (4) 100 μl of a test compound dissolved in the buffer was added to it (final concentration, 10 μM, and left as such for 60 minutes. (5) Using a fluorescence microplate reader (Spectra Max 190 by Molecular Device), the sample was analyzed at the optimum exciting wavelength and the test wavelength that had been previously determined. (6) The fluorescence intensity in the presence of the test compound, amyloid β protein and Congo red is represented by A; that in the presence of the test compound and Congo red is by B; that in the presence of the test compound and amyloid β protein is by C; and that in the presence of only the test compound is by D. The β structure recognition of the test compound is computed according to the following formula: β structure recognition (%) of test compound={(A−B)/(C−D)}×100. (7) It may be said that the test compound having a higher β structure recognition percentage may have higher binding specificity to amyloid β protein.

[1] = biological target: T2, amyloid β protein in the brain section of an Alzheimer disease patient (Homo sapiens, UniProt P05067); experiment: Staining test on a brain section of an Alzheimer disease patient: amyloid β protein; assay type: binding; details: 100 μM solution in 50% ethanol, 10 minutes, paraffin brain section
T2 construct: from tissue; host or cells: paraffin-embedded temporal lobe and hippocampus of Alzheimer disease patients
From the text: (1) Brain specimens at the temporal lobe and the hippocampus of patients to which a definitive diagnosis of Alzheimer disease had been given, and those of normal senile persons were used. The specimens were given by our coworker, Fukushimura Hospital, Longevity Medicine Institute, and we were given their consent of use of the specimens for our study purpose by the bereaved of the patients (Fukushimura Hospital Ethical Review Board Approval No. 20).
(2) The paraffin-embedded brain tissue was cut Into slices having a thickness of 6 μm or 8 μm, and extended and dried on a slide. The paraffin brain section was steeped for paraffin removal in xylene twice for 10 minutes, 100% ethanol twice for 5 minutes, 90% ethanol for 5 minutes and running water for 10 minutes in that order.
(3) For pretreatment prior to the staining treatment with a compound of the invention, the sections were steeped for autofluorescence removal with lipofuscin. First, the paraffin-removed sections were dipped in 0.25% KMnO4 solution for 20 minutes. These were washed with PBS, twice for 2 minutes, then dipped in 0.1% K2S2O5/oxalic acid solution for about 5 seconds, and then further washed with PBS, three times for 2 minutes.
(4) About 150 μl of a 100 μM solution of a compound of the invention dissolved in 50% ethanol was dropwise applied to the section and reacted for 10 minutes. After dipped five times in tap water, the section was entrapped with Fluor Save Reagent (Calbiochem), and analyzed through microscopy with a fluorescence microscope (Nikon, Eclipse 80i). The images were taken with a digital camera (Nikon Dxm 1200F or Photometrics' Cool SNAP ES).
(1) After paraffin removal, the sections were washed in distilled water, twice for 2 minutes. Then, using ImmunoPen, the tissue was marked with a surrounding line; about 150 μl of formic acid was dropwise applied to the section and statically left at room temperature for 5 minutes. The section was washed with tap water for 5 minutes, then dipped in cold PBS-Tween 20 for 2 minutes, and thereafter about 150 μl of 0.05% trypsin solution was dropwise applied to it and reacted at 37° C. for 15 minutes.
(2) In an ice bath, this was washed with cold PBS-Tween 20, twice for 5 minutes, and then 2 drops of blocking serum were applied to it and reacted at 37° C. for 30 minutes. Excess water was removed, and then about 150 μl of a specific antibody to amyloid β protein, 6F/3D (by DAKO, 1/50 dilution) was dropwise applied to it, and reacted at 37° C. for 1 hour.
(3) Further, this was washed with cold PBS-Tween 20, 5 times for 2 minutes, and then 2 drops of an anti-mouse IgG (H+L), goat, biotin-binding solution were applied to it and reacted at 37° C. for 1 hour. Then, this was washed with cold PBS-Tween 20, three times for 2 minutes, and 2 drops of an ABC solution (streptoavidin-biotin-peroxidase composite solution) were applied to it, and left statically as such for 30 minutes. Again this was washed with cold PBS-Tween 20, three times for 2 minutes, and then about 150 μl of a DAB solution (10 mg of DAB was dissolved in 20 ml of 0.05 mol/liter tris-HCl buffer, and just before use, 100 μl of 3% hydrogen peroxide water was added to it) was dropwise applied to it for sufficiently staining it. Then, this was washed with distilled water for 1 minute to stop the reaction, then entrapped and observed through microscopy.

Acute Toxicity Test = assay type: in vivo; details: Crj:CD1 male mice, tail vein, observed for 7 days
Procedure: The compounds of the invention were tested for their acute toxicity through intravenous administration thereof to mice. Four Crj:CD1 male mice formed one test group, and some test groups of those mice were used (the mean body weight of the mice of each group was from 31 to 32 g). A test compound was dissolved in a mixture of 1 N HCl, polyethylene glycol-400 and distilled water, or dissolved in DMSO, and then diluted with distilled water. This was administered to each mouse via its tail vein.

[2] = Brain Permeability Test Through HPLC; assay type: in vivo; details: mice, 2 minutes after intravenous administration
Procedure: A compound of the invention was intravenously administered to mice, and tested for its in-vivo brain permeability in the mice.
(1) Slc:ICR mice (by Nippon SLC) (body weight, 30 to 40 g; n=3) were used.
(2) A test compound was dissolved in a mixture of 5% Tween 80-5% ethyl alcohol-5% 1 N HCl-physiological saline water, and injected into the test mouse via its tail vein. Two minutes after the administration, the blood was collected from the test mouse under ether anesthesia via its abdominal aorta using a heparin-steeped syringe, and the brain material was collected from it.
(3) After collected, the blood was centrifuged at 4° C. and 14,000 rpm for 10 minutes, and the supernatant was stored at −80° C. as plasma. After collected, the brain material (including the cerebellum) was stored at −80° C.
(4) 0.3 ml of acetonitrile was added to 0.1 ml of the plasma, then vortexed, and centrifuged at 4° C. and under 10,000 G for 5 minutes. After centrifuged, 0.2 ml of the resulting supernatant was transferred into Mini-Uniprep (Whatman), then 0.2 ml of 20 mM phosphate buffer was added to it and filtered. 0.2 ml of the resulting filtrate was analyzed through HPLC (Shiseido Nanospace SI-2; pump, 3001; UV-VIS detector, 3002; column thermostat, 3004; fluorescence detector, 3013).
(5) 2 ml of methanol was added to the brain, homogenized, and centrifuged at 4° C. and 3000 or 4000 rpm for 10 minutes. After centrifuged, 500 μl of the resulting supernatant was diluted 10-fold with 20 mM phosphate buffer. (i) 2 to 3 ml of acetonitrile, (ii) 2 to 5 ml of methanol and (iii) 4 to 6 ml of ultra-pure water were led through a cartridge for solid-phase extraction (J. T. Baker Speedisk) in that order, and the 10-fold diluted supernatant solution was led through it. Via an empty syringe, air was applied to the cartridge for solid-phase extraction, two or three times to remove water, and then this was eluted with about 500 μl of acetonitrile or methanol, and the eluate was diluted 2-fold with 20 mM phosphate buffer. 0.2 ml of the resulting solution was analyzed through HPLC.
(6) The test compound content in the plasma and in the brain was determined relative to the dose of the compound (% ID (injected dose)/g or ml).

[3] = system: histidine-requiring Salmonella typhimurium TA100 and TA98 strains; experiment: Mutagenicity Test (reverse mutation test); assay type: cell-based; details: for Relative Activity in the presence of S9Mix / Relative Activity in the absence of S9Mix: reverse mutation test
Procedure: In view of their use, it is desirable that the compounds of the invention have no mutagenicity or have little mutagenicity to a level causing no problem. For investigating the gene mutagenesis of the compounds of the invention, herein carried out was a reverse mutation test with histidine-requiring Salmonella typhimurium TA100 and TA98 strains. Two tests were carried out. One is a test for dose determination test; and the other is for mutagenicity.
The test methods and the mutagenicity of the compounds of the invention are mentioned below. In the dose determination test, six doses of 0.160, 0.800, 4.00, 20.0, 100 and 500 μg/plate (common ratio 5) were tried.
As a result of the dose determination test, when the mutagenicity of the test compound was admitted, then the actual test for mutagenicity was carried out, using the dose capable of giving an accurate dose-reaction curve. When no mutagenicity of the test compound was admitted in the dose determination test and when the growth inhibition of the test cells was admitted therein, then the dose to present the growth inhibition was taken as the maximum dose; and when the growth inhibition was not admitted, then a dose of 5000 μg/plate was taken as the maximum dose. With that, the actual test for mutagenicity was carried out on the level of 6 doses (common ratio 2).
First, a test compound was dissolved or suspended in DMSO, then diluted in order to prepare test compound liquids having a varying concentration.
100 μl of a test compound liquid or a negative control (DMSO) solution was put into a sterilized test tube. Then, for the case in the absence of a metabolic activation system (−S9mix), 500 μl of 0.1 mol/liter sodium-phosphate buffer (pH 7.4) was added to it; and for the case in the presence of a metabolic activation system (+S9mix), 500 μl of S9mix was added to it.
Next, 100 μl of the test strain suspension that had been cultivated with shaking at 37° C. for 8 hours was added to it, and preincubated in a shaking thermostat at 37° C. for 20 minutes. After shaken, 2 ml of top agar was added to it, and the contents were mixed.
Next, the mixture was poured onto a minimal glucose agar plate medium (plate) and spread uniformly thereon, then the top agar was solidified, and the plate was transferred into a thermostat and incubated at 37° C. for 48 hours.
Then, the number of the colonies grown through reverse mutation was counted.
For counting it, […]. After area correction and miss-counting correction, the number of the colonies was computed. When the colony analyzer could not be used owing to the deposition of the test compound or the cell growth inhibition, then the number of the colonies was counted with the naked eye.
In case where the number of the colonies through reverse mutation increased two times or more that of the negative control and where the dose dependency or the reproducibility of the increase was admitted, then the tested sample was decided as positive. When the sample was is decided as positive, then the relative activity that indicates the relative comparative value of the intensity of the mutagenicity of the test compound was obtained according to the following formula: Relative Activity={(number of colonies per plate having the concentration)−(number of colonies per negative control plate)}/the value of concentration (mg/plate).

[4] = Congo red 0.1 μM, read-out: Binding Percentage of Compound in the presence of 0.1 μM CR
[5] = Congo red 0.3 μM, read-out: Binding Percentage of Compound in the presence of 0.3 μM CR
[6] = Congo red 1 μM, read-out: Binding Percentage of Compound in the presence of 1 μM CR

T1 sequence (P05067 672-711): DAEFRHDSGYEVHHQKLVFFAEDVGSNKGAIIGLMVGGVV
T2 sequence (P05067 672-713 limits assumed): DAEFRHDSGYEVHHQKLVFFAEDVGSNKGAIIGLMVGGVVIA

Row | Structure (SMILES) | activity at 10 µM (Amyloid β protein 1-40; [4]) [%] | activity at 10 µM (Amyloid β protein 1-40; [5]) [%] | activity at 10 µM (Amyloid β protein 1-40; [6]) [%] | Binding to (staining of) amyloid β protein in the brain section of an Alzheimer disease patient [1] | Maximum Permissible Dose (mg/kg, intravenous administration) (Acute Toxicity Test) | Brain Permeability: Brain [2] | Brain Permeability: Plasma [2] | Relative activity (mutagenicity) ([3]; irrespective of the absence or presence of S9mix) | Relative Activity in the presence of S9Mix [3] | Relative Activity in the absence of S9Mix [3] | Relative activity (mutagenicity) ([3]; in the presence of S9mix)
1 | OCC(CF)Oc1ccc2nc(/C=C/c3cnc(N4CCCOCC4)s3)oc2c1 (stereo not shown) [THK-766, (E)-6-[(1-fluoromethyl-2-hydroxy)ethoxy]-2-[2-[2-homomorpholinothiazol-5-yl)ethenyl]benzoxazole] | 61 | 21.5 | 11.2 | white space arrow indicates amyloid β protein | ≧10 mg/kg |  |  |  |  |  | 
2 | OCC(CF)Oc1ccc2nc(/C=C/c3cnc(N4CCCCCC4)s3)oc2c1 (stereo not shown) [THK-765, (E)-6-[(1-fluoromethyl-2-hydroxy)ethoxy]-2-[2-[2-(homopiperidin-1-yl)thiazol-5-yl]ethenyl]benzoxazole] | 71.2 | 41.3 | 23 |  | ≧10 mg/kg |  |  |  |  |  | 
3 | OCC(CF)Oc1ccc2nc(/C=C/c3cnc(N4CCCCC4)s3)oc2c1 (stereo not shown) [THK-713] | 58.2 | 21.2 | 3 |  | ≧10 mg/kg | 5.9 % ID/g or ml | 3.29 % ID/g or ml | minus | minus | minus | 
4 | CN1CCN(c2ncc(/C=C/c3nc4ccc(OC(CO)CF)cc4o3)s2)CC1 (stereo not shown) [THK-707, (E)-6-[(1-fluoromethyl-2-hydroxy)ethoxy]-2-[2-[2-(4-methylpiperazin-1-yl)thiazol-5-yl]ethenyl]benzoxazole] | 66.8 | 36.4 | 29.7 |  | ≧10 mg/kg | 4.4 % ID/g or ml | 0.58 % ID/g or ml |  | minus | 264 | weak
5 | OCC(CF)Oc1ccc2nc(/C=C/c3cnc(N4CCCOC4)s3)oc2c1 (stereo not shown) [THK-757, (E)-6-[(1-fluoromethyl-2-hydroxy)ethoxy]-2-[2-[2-([1,3]oxadinan-3-yl)-thiazol-5-yl]ethenyl] benzoxazole] | 52.4 | 24.8 | 10.3 |  | ≧10 mg/kg |  |  |  |  |  | 
